In patent publication US8969388B1, “Substituted pyrazolone compounds and methods of use” (Calitor Sciences, LLC, priority 2012, dated 2015):
pKd: −log10 of the molar value. Like-named read-outs stand apart in the source and are kept apart here. Blank lines part the entries; values can stand above or below the compound they belong to.

How the values were obtained:
[1] = biological target: T1, c-Met (h) (Homo sapiens, UniProt P08581); experiment: KINOMEscan competition binding assay, c-Met (h)
T1 construct: host or cells: E. coli BL21-derived host (T7 phage) or HEK-293
T1 sequence (P08581 25-1390): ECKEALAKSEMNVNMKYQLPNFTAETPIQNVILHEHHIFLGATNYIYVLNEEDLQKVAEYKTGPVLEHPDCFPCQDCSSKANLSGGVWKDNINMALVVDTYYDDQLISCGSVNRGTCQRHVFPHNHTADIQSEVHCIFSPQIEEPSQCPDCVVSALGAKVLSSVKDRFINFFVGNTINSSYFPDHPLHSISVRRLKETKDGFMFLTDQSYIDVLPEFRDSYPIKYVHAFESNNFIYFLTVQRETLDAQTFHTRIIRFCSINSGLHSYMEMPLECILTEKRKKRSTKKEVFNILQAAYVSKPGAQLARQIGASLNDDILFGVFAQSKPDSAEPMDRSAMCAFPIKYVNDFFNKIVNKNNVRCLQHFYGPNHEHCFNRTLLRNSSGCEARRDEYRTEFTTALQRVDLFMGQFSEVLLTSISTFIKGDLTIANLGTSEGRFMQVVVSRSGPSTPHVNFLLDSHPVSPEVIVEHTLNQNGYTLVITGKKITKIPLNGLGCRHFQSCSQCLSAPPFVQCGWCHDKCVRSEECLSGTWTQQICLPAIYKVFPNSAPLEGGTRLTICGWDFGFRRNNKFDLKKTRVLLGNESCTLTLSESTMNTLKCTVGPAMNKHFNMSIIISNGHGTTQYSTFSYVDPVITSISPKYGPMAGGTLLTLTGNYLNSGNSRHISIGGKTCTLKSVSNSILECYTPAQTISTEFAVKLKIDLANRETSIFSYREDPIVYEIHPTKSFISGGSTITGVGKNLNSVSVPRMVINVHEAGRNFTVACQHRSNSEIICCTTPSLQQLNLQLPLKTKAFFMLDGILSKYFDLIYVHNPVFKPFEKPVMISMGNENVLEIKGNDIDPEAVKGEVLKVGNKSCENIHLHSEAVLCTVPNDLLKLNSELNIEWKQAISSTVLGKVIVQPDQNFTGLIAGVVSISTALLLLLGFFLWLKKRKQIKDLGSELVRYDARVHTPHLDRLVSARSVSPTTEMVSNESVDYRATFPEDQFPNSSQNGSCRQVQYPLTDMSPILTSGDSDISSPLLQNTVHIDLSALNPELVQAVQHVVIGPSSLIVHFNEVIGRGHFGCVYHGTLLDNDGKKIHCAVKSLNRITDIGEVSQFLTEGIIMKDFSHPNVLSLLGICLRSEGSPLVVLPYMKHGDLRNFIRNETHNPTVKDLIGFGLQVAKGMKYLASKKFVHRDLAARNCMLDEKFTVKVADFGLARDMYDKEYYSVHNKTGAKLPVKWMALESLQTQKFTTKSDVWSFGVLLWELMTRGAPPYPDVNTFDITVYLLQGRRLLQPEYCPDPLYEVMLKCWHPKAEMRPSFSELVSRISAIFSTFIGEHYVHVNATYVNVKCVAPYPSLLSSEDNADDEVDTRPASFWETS
Protocol: (§1) Alternatively, the kinase activities of the compounds can be measured using KINOMEscan™, which is based on a competition binding assay that quantitatively measures the ability of a compound to compete with an immobilized, active-site directed ligand. The assay was performed by combining three components: DNA-tagged kinase; immobilized ligand; and a test compound. The ability of the test compound to compete with the immobilized ligand was measured via quantitative PCR of the DNA tag.
(§2) For most assays, kinase-tagged T7 phage strains were prepared in an E. coli host derived from the BL21 strain. E. coli were grown to log-phase and infected with T7 phage and incubated with shaking at 32° C. until lysis. The lysates were centrifuged and filtered to remove cell debris. The remaining kinases were produced in HEK-293 cells and subsequently tagged with DNA for qPCR detection. Streptavidin-coated magnetic beads were treated with biotinylated small molecule ligands for 30 minutes at room temperature to generate affinity resins for kinase assays. The liganded beads were blocked with excess biotin and washed with blocking buffer (SEABLOCK™ (Pierce), 1% BSA, 0.05% TWEEN®20, 1 mM DTT) to remove unbound ligand and to reduce nonspecific binding. Binding reactions were assembled by combining kinases, liganded affinity beads, and test compounds in 1× binding buffer (20% SEABLOCK™, 0.17×PBS, 0.05% TWEEN®20, 6 mM DTT). All reactions were performed in polystyrene 96-well plates in a final volume of 0.135 mL. The assay plates were incubated at room temperature with shaking for 1 hour and the affinity beads were washed with wash buffer (1×PBS, 0.05% TWEEN®20). The beads were then re-suspended in elution buffer (1×PBS, 0.05% TWEEN®20, 0.5 μM non-biotinylated affinity ligand) and incubated at room temperature with shaking for 30 minutes. The kinase concentration in the eluates was measured by qPCR.
(§3) The kinase assays described herein were performed using KINOMEscan™ Profiling Service at DiscoveRx Corporation, 42501 Albrae St. Fremont, Calif.

[2] = biological target: T2, KDR (h) (Homo sapiens, UniProt P35968); experiment: KINOMEscan competition binding assay, KDR (h)
T2 construct: host or cells: E. coli BL21-derived host (T7 phage) or HEK-293
T2 sequence (P35968 20-1356): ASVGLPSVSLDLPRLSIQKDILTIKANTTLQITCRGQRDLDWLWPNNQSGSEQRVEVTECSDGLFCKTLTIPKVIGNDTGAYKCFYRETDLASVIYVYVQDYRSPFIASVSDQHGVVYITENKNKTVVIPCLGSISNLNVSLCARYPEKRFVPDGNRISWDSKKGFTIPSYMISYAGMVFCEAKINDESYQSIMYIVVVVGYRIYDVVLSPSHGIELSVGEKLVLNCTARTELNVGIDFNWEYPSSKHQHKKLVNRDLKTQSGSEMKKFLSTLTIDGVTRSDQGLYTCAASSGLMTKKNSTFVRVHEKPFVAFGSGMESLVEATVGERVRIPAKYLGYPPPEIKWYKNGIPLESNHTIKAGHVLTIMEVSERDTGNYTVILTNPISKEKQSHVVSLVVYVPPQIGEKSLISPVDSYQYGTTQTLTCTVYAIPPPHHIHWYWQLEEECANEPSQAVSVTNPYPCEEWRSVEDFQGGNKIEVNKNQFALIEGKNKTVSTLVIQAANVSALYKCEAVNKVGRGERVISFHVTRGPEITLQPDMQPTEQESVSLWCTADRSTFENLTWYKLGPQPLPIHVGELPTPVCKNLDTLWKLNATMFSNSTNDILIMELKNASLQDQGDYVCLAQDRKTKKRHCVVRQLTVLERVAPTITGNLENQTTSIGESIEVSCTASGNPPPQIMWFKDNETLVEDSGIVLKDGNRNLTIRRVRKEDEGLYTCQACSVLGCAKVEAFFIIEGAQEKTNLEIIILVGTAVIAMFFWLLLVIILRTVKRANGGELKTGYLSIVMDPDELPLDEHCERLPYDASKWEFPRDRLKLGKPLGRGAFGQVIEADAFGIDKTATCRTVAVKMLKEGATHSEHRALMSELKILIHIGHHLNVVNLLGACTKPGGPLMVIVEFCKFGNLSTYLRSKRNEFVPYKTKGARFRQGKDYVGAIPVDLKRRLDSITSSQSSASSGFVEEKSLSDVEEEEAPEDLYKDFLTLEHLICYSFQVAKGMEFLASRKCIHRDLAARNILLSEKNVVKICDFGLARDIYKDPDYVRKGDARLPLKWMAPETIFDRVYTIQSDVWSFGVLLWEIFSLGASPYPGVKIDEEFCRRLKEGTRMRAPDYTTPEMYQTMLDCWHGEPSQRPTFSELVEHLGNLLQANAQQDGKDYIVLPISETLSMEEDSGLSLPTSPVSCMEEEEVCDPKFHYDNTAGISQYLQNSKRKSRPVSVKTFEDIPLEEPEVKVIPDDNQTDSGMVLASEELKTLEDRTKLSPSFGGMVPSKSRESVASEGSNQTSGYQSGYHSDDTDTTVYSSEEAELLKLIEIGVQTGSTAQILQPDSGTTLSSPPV
Protocol: as §1, §2, §3

[3] = system: U87MG glioblastoma cells; experiment: U87MG tumor xenograft model, tumor growth inhibition; type: in vivo, athymic nude mice (BALB/cA nu/nu); conditions: mice, oral gavage
Protocol: The efficacy of compounds disclosed herein was evaluated in a standard murine model of tumorigenesis. Human tumor cells (U87MG glioblastoma cells from ATCC) were expended in culture, harvested, and injected subcutaneously onto the rear flank of 6-7 week old female athymic nude mice (BALB/cA nu/nu, Hunan SLAC Laboratory Animal, Co.) (n=6-10 for vehicle group and for each dosing group). When tumors reached a volume of 100-250 mm^3, animals were randomly divided into vehicle control (for example, 5% DMSO+70% Captisol® (30%), 7% HCl (pH1), 18% Captisol® (30%); or 7% DMSO, 7% HCl (pH1), 70% Captisol® (30%), 16% Captisol® (30%), or the like) and compound groups. Subsequent administration of compound by oral gavage begins anywhere from day 0 to day 15 post tumor cell challenge and generally continues with once a day for the duration of the experiment.
Progression of tumor growth is assessed by tumor volumes and recorded as a function of time. The long (L) and short (W) axes of the subcutaneous tumors were measured with calipers twice weekly, and the tumor volume (TV) calculated as (L×W^2)/2). TGI was calculated from the difference between the median tumor volumes of vehicle-treated and drug-treated mice, expressed as a percentage of the median tumor volume of the vehicle-treated control group, by the following relation:
[formula] Initial statistical analysis is done by repeated measures analysis of variance (RMANOVA), followed by Scheffe psot hoc testing for multiple comparisons. Vehicle alone (5% DMSO+70% Captisol® (30%), 7% HCl (pH1), 18% Captisol® (30%); or 7% DMSO, 7% HCl (pH1), 70% Captisol® (30%), 16% Captisol® (30%), or the like) is the negative control.

[4] = Pharmacokinetics after intravenous and oral administration in rats; type: in vivo; conditions: for F: oral bioavailability, oral dose not given; for AUC(0-t) / half-life / Vd: rat, plasma; for clearance (CL) after iv dosing / AUC(0-t) / half-life / Vd: iv dosing; for Vd: read-out: Vss
Protocol: The compounds disclosed herein are assessed in pharmacokinetic studies in mice, rats, dogs or monkeys. The compounds are administered as a water solution, 2% HPMC+1% TWEEN®80 in water solution, 5% DMSO+5% solutol in saline, 4% MC suspension or capsule. For the intravenous administration, the animals are generally given at 1 or 2 mg/kg dose. For the oral (p.o.) dosing, mice and rats are generally given 5 or 10 mg/kg dose, and dogs and monkeys are generally given 10 mg/kg dose. The blood samples (0.3 mL) are drawn at 0.25, 0.5, 1.0, 2.0, 3.0, 4.0, 6.0, 8.0, 12 and 24 h time points or 0.083, 0.25, 0.5, 1.0, 2.0, 4.0, 6.0, 8.0 and 24 h time points and centrifuged at 3,000 or 4000 rpm for 2 to 10 min. The plasma solutions are collected, stored at −20° C. or −70° C. until analyzed by LC/MS/MS as described above.

- pKd [1]: 7.89
- pKd [2]: 7.37
- clearance (CL) after iv dosing ([4]; 1 mg/kg): 23.2 mL/min/kg
- F ([4]; iv dose 1 mg/kg): 98.5%
- AUC(0-t) ([4]; 1 mg/kg): 685 ng·h/mL
- half-life ([4]; 1 mg/kg): 4.1 h
- Vd ([4]; 1 mg/kg): 1.75 L/kg
SMILES: Cc1c(C(=O)Nc2ccc(Oc3ccnc(N)c3Cl)cc2)c(=O)n(-c2ccccc2)n1C [Ex. 2, N-(4-((2-amino-3-chloropyridin-4-yl)oxy)phenyl)-1,5-dimethyl-3-oxo-2-phenyl-2,3-dihydro-1H-pyrazole-4-carboxamide]
- TGI % (on last day of dosing) ([3]; 6 mg/kg, 14 days): 29%
- TGI % (on last day of dosing) ([3]; 20 mg/kg, 14 days): 69%
- TGI % (on last day of dosing) ([3]; 60 mg/kg, 14 days): 82%

- pKd [1]: 7.62
- pKd [2]: 6.27
SMILES: CC(=O)Nc1nccc(Oc2ccc(NC(=O)c3c(C)n(C)n(-c4ccccc4)c3=O)cc2F)c1Cl [Ex. 4, N-(4-((2-acetamido-3-chloropyridin-4-yl)oxy)-3-fluorophenyl)-1,5-dimethyl-3-oxo-2-phenyl-2,3-dihydro-1H-pyrazole-4-carboxamide]

- pKd [1]: 7.43
- pKd [2]: 5.48
- clearance (CL) after iv dosing ([4]; 2 mg/kg): 31.2 mL/min/kg
- F ([4]; iv dose 2 mg/kg): 19.1%
- AUC(0-t) ([4]; 2 mg/kg): 1080 ng·h/mL
- half-life ([4]; 2 mg/kg): 0.31 h
- Vd ([4]; 2 mg/kg): 0.53 L/kg
SMILES: Cc1c(C(=O)Nc2ccc(Oc3ccnc(N)c3)c(F)c2F)c(=O)n(-c2ccccc2)n1C [Ex. 5, N-(4-((2-aminopyridin-4-yl)oxy)-2,3-difluorophenyl)-1,5-dimethyl-3-oxo-2-phenyl-2,3-dihydro-1H-pyrazole-4-carboxamide]

- pKd [1]: 8.74
- pKd [2]: 6.80
- clearance (CL) after iv dosing ([4]; 1 mg/kg): 0.67 mL/min/kg
- F ([4]; iv dose 1 mg/kg): 61.2%
- AUC(0-t) ([4]; 1 mg/kg): 23300 ng·h/mL
- half-life ([4]; 1 mg/kg): 4.76 h
- Vd ([4]; 1 mg/kg): 0.24 L/kg
SMILES: CC(=O)Nc1cc(Oc2cc(F)c(NC(=O)c3c(C)n(C)n(-c4ccccc4)c3=O)cc2F)ccn1 [Ex. 9, N-(4-((2-acetamidopyridin-4-yl)oxy)-2,5-difluorophenyl)-1,5-dimethyl-3-oxo-2-phenyl-2,3-dihydro-1H-pyrazole-4-carboxamide]

- clearance (CL) after iv dosing ([4]; 1 mg/kg): 1.83 mL/min/kg
- F ([4]; iv dose 1 mg/kg): 83.2%
- AUC(0-t) ([4]; 1 mg/kg): 9640 ng·h/mL
- half-life ([4]; 1 mg/kg): 4.6 h
- Vd ([4]; 1 mg/kg): 0.53 L/kg
SMILES: Cc1c(C(=O)Nc2cc(F)c(Oc3ccnc(NC(=O)N4CCOCC4)c3)cc2F)c(=O)n(-c2ccccc2)n1C [Ex. 10, N-(4-(4-(1,5-dimethyl-3-oxo-2-phenyl-2,3-dihydro-1H-pyrazole-4-carboxamido)-2,5-difluorophenoxy)pyridin-2-yl)morpholine-4-carboxamide]

- pKd [1]: 8.85
- pKd [2]: 6.47
- clearance (CL) after iv dosing ([4]; 2 mg/kg): 9.5 mL/min/kg
- F ([4]; iv dose 2 mg/kg): 88.0%
- AUC(0-t) ([4]; 2 mg/kg): 3340 ng·h/mL
- half-life ([4]; 2 mg/kg): 2.9 h
- Vd ([4]; 2 mg/kg): 1.17 L/kg
SMILES: Cc1c(C(=O)Nc2cc(F)c(Oc3ccnc(N)c3Cl)cc2F)c(=O)n(-c2ccccc2)n1C [Ex. 11, N-(4-((2-amino-3-chloropyridin-4-yl)oxy)-2,5-difluorophenyl)-1,5-dimethyl-3-oxo-2-phenyl-2,3-dihydro-1H-pyrazole-4-carboxamide]

- pKd [1]: 7.25
- pKd [2]: 4.72
- clearance (CL) after iv dosing ([4]; 2 mg/kg): 15.7 mL/min/kg
- F ([4]; iv dose 2 mg/kg): 125.0%
- AUC(0-t) ([4]; 2 mg/kg): 2120 ng·h/mL
- half-life ([4]; 2 mg/kg): 1.56 h
- Vd ([4]; 2 mg/kg): 0.69 L/kg
SMILES: Cc1c(C(=O)Nc2ccc(Oc3ccnc(N)c3)cc2Cl)c(=O)n(-c2ccccc2)n1C [Ex. 12, N-(4-((2-aminopyridin-4-yl)oxy)-2-chlorophenyl)-1,5-dimethyl-3-oxo-2-phenyl-2,3-dihydro-1H-pyrazole-4-carboxamide]

- pKd [1]: 7.74
- pKd [2]: 6.24
SMILES: CC(=O)Nc1cc(Oc2ccc(NC(=O)c3c(C)n(C)n(-c4ccccc4)c3=O)c(Cl)c2)ccn1 [Ex. 13, N-(4-((2-acetamidopyridin-4-yl)oxy)-2-chlorophenyl)-1,5-dimethyl-3-oxo-2-phenyl-2,3-dihydro-1H-pyrazole-4-carboxamide]

- pKd [1]: 6.74
- pKd [2]: 5.42
SMILES: [2H]c1cc(Oc2ccnc(N)c2)ccc1NC(=O)c1c(C)n(C)n(-c2ccccc2)c1=O [Ex. 15, N-(4-((2-aminopyridin-4-yl)oxy)-2-deuteriumphenyl)-1,5-dimethyl-3-oxo-2-phenyl-2,3-dihydro-1H-pyrazole-4-carboxamide]

- pKd [1]: 6.70
- pKd [2]: 5.74
SMILES: Cc1c(C(=O)Nc2ccc(Oc3ccnc(N)c3)cn2)c(=O)n(-c2ccccc2)n1C [Ex. 16, N-(5-((2-aminopyridin-4-yl)oxy)pyridin-2-yl)-1,5-dimethyl-3-oxo-2-phenyl-2,3-dihydro-1H-pyrazole-4-carboxamide]

- pKd [1]: 7.80
- pKd [2]: 7.59
SMILES: Cc1c(C(=O)Nc2ccc(Oc3ccnc(N)c3Cl)cn2)c(=O)n(-c2ccccc2)n1C [Ex. 19, N-(5-((2-amino-3-chloropyridin-4-yl)oxy)pyridin-2-yl)-1,5-dimethyl-3-oxo-2-phenyl-2,3-dihydro-1H-pyrazole-4-carboxamide]
- TGI % (on last day of dosing) ([3]; 6 mg/kg, 12 days): 22%
- TGI % (on last day of dosing) ([3]; 20 mg/kg, 12 days): 49%
- TGI % (on last day of dosing) ([3]; 60 mg/kg, 12 days): 103%

- pKd [1]: 6.21
- pKd [2]: 5.80
SMILES: CC(=O)Nc1nccc(Oc2ccc(NC(=O)c3c(C)n(C)n(-c4ccccc4)c3=O)nc2)c1Cl [Ex. 20, N-(5-((2-acetamido-3-chloropyridin-4-yl)oxy)pyridin-2-yl)-1,5-dimethyl-3-oxo-2-phenyl-2,3-dihydro-1H-pyrazole-4-carboxamide]

- pKd [1]: 6.92
- pKd [2]: 5.96
SMILES: CC(=O)Nc1nccc(Oc2ccc(NC(=O)c3c(C)n(C)n(-c4ccccc4)c3=O)cc2)c1Cl [Ex. 21, N-(4-((2-acetamido-3-chloropyridin-4-yl)oxy)phenyl)-1,5-dimethyl-3-oxo-2-phenyl-2,3-dihydro-1H-pyrazole-4-carboxamide]

- pKd [1]: 8.29
- pKd [2]: 7.89
- clearance (CL) after iv dosing ([4]; 2 mg/kg): 0.5 mL/min/kg
- F ([4]; iv dose 2 mg/kg): 69.7%
- AUC(0-t) ([4]; 2 mg/kg): 56600 ng·h/mL
- half-life ([4]; 2 mg/kg): 4.4 h
- Vd ([4]; 2 mg/kg): 0.18 L/kg
SMILES: CC(=O)Nc1cc(Oc2ccc(NC(=O)c3c(C)n(C)n(-c4ccccc4)c3=O)cc2F)ccn1 [Ex. 23, N-(4-((2-acetamidopyridin-4-yl)oxy)-3-fluorophenyl)-1,5-dimethyl-3-oxo-2-phenyl-2,3-dihydro-1H-pyrazole-4-carboxamide]
